pIC50: −log10 of the molar value. Calls of active or inactive are those of the source. No rule for the calls is given here.
Molecular target: Dual specificity protein phosphatase 1 (Homo sapiens) (UniProt P28562)
Experiment: concentration-response of DUSP1 blockers – biochemical, in vitro, confirmation, dose response (AID 551)
Details: recombinant MKP-1 phosphatase, fluorescence substrate

Dual specificity protein phosphatase 1 (Homo sapiens), sequence (P28562 whole entry, looked up): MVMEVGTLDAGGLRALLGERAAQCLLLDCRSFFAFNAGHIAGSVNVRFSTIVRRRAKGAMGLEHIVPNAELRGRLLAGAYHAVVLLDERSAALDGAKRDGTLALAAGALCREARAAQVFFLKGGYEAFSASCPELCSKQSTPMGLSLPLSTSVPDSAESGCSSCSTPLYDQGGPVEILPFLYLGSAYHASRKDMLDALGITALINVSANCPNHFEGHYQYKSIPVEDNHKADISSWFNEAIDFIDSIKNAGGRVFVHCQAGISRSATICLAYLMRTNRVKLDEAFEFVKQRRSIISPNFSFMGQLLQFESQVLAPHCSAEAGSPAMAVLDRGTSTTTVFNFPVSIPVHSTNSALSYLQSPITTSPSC

Row | SMILES | IC50 | pIC50
1 | O=C1C(C2=C(O)c3ccccc3C2=O)=Nc2ccccc21 | > 50 µM (inactive) | –
2 | Cc1cc(C)n2c(SCC(=O)N3CCN(S(=O)(=O)c4ccc(Cl)cc4)CC3)nnc2n1 | – | 4.30
3 | Oc1ccc2ccccc2c1C=NC12CN3CCN(CN(C3)C1)C2 | > 50 µM (inactive) | –
4 | O=C1c2cccnc2C(Nc2ccc(S(=O)(=O)N3CCCCCC3)cc2)N1Cc1ccccc1 (centres undefined) | > 50 µM (inactive) | –
5 | CCSCCOC(=O)C1=C(C)NC2=C(C(=O)CCC2)C1c1coc2ccccc2c1=O (centres undefined) | > 50 µM (inactive) | –
6 | COC(=O)C1=C(C)NC2=C(C(=O)c3ccccc32)C1c1ccc(-c2ccc(C(=O)O)cc2)o1 (centres undefined) | > 50 µM (inactive) | –
7 | N#C/C(=C(/O)CSc1nnc(Cc2cccs2)n1C1CCCCC1)c1nc2ccccc2[nH]1 | > 50 µM (inactive) | –
8 | O=C1c2ccccc2-c2onc3ccc(NCCCn4ccnc4)c1c23 | – | 4.56
9 | CCOC(=O)c1ccc(NC2c3ncccc3C(=O)N2Cc2ccc(F)cc2)cc1 (centres undefined) | > 50 µM (inactive) | –

Reference: PubChem BioAssay AID551 (University of Pittsburgh Molecular Library Screening Center, 2006)
